{"source": "patent US7541346B2", "about": "“Pancratistatin cyclic phosphate prodrugs and phenpanstatin cyclic phosphate prodrugs” (Arizona Board of Regents, a body corporate of the State of …, priority 2003, dated 2009)", "key": {"BXPC-3": {"system": "BXPC-3", "experiment": "Human cancer cell line inhibitory activity, Pancreas-a BXPC-3", "type": "cell-based"}, "MCF-7": {"system": "MCF-7", "experiment": "Human cancer cell line inhibitory activity, Breast MCF-7", "type": "cell-based"}, "SF268": {"system": "SF268", "experiment": "Human cancer cell line inhibitory activity, CNS SF268", "type": "cell-based"}, "NCI-H460": {"system": "NCI-H460", "experiment": "Human cancer cell line inhibitory activity, Lung-NSC NCI-H460", "type": "cell-based"}, "KM20L2": {"system": "KM20L2", "experiment": "Human cancer cell line inhibitory activity, Colon KM20L2", "type": "cell-based"}, "DU-145": {"system": "DU-145", "experiment": "Human cancer cell line inhibitory activity, Prostate DU-145", "type": "cell-based"}, "[1]": {"system": "Encephalitozoon intestinalis", "conditions": "in vitro; cited from earlier work"}, "[2]": {"conditions": "freeze dried solid", "procedure": "Sodium pancratistatin 3,4-cyclic phosphate (5a, 0.0165 g, 0.04 mmol) was dissolved in water (1 ml) and eluted through a column containing Amberlite IR 120 (H+) resin."}}, "data": [{"compound": "O=C1N[C@H]2[C@H](O)[C@H](O)[C@@H](O)[C@H](O)[C@@H]2c2cc3c(c(O)c21)OCO3", "note": "[Compound 1a, (+)-pancratistatin, reference compound]", "values": [{"measurement": "GI50", "setting": "BXPC-3; Homo sapiens, BXPC-3, read-out: GI50 Pancreas-a BXPC-3", "value": 0.02, "unit": "µg/mL"}, {"measurement": "GI50", "setting": "MCF-7; Homo sapiens, MCF7, read-out: GI50 Breast MCF-7", "value": 0.023, "unit": "µg/mL"}, {"measurement": "GI50", "setting": "SF268; Homo sapiens, SF-268, read-out: GI50 CNS SF268", "value": 0.014, "unit": "µg/mL"}, {"measurement": "GI50", "setting": "NCI-H460; Homo sapiens, NCI-H460, read-out: GI50 Lung-NSC NCI-H460", "value": 0.032, "unit": "µg/mL"}, {"measurement": "GI50", "setting": "KM20L2; Homo sapiens, KM-20L2, read-out: GI50 Colon KM20L2", "value": 0.025, "unit": "µg/mL"}, {"measurement": "GI50", "setting": "DU-145; Homo sapiens, DU-145, read-out: GI50 Prostate DU-145", "value": 0.015, "unit": "µg/mL"}, {"measurement": "activity against microspirochesis", "setting": "[1]", "value": "remarkable activity"}]}, {"compound": "O=C1N[C@H]2[C@H](OP(=O)(O)O)[C@H](O)[C@@H](O)[C@H](O)[C@@H]2c2cc3c(c(O)c21)OCO3", "note": "[Compound 4b, Pancratistatin 4-O-phosphoric Acid]", "values": [{"measurement": "GI50 Pancreas-a BXPC-3", "setting": "BXPC-3", "value": 0.36, "unit": "µg/mL"}, {"measurement": "GI50 Breast MCF-7", "setting": "MCF-7", "value": 0.43, "unit": "µg/mL"}, {"measurement": "GI50 CNS SF268", "setting": "SF268", "value": 0.35, "unit": "µg/mL"}, {"measurement": "GI50 Lung-NSC NCI-H460", "setting": "NCI-H460", "value": 0.42, "unit": "µg/mL"}, {"measurement": "GI50 Colon KM20L2", "setting": "KM20L2", "value": 0.33, "unit": "µg/mL"}, {"measurement": "GI50 Prostate DU-145", "setting": "DU-145", "value": 0.20, "unit": "µg/mL"}, {"measurement": "stability of the material", "setting": "[2]", "value": "unstable and decomposed over several days"}]}, {"compound": "O=C1N[C@H]2[C@H](OP(=O)([O-])[O-])[C@H](O)[C@@H](O)[C@H](O)[C@@H]2c2cc3c(c(O)c21)OCO3.[Mg+2]", "note": "[Compound 4e, Magnesium Pancratistatin 4-O-Phosphate]", "values": [{"measurement": "GI50 Pancreas-a BXPC-3", "setting": "BXPC-3", "value": 0.40, "unit": "µg/mL"}, {"measurement": "GI50 Breast MCF-7", "setting": "MCF-7", "value": 0.44, "unit": "µg/mL"}, {"measurement": "GI50 CNS SF268", "setting": "SF268", "value": 0.36, "unit": "µg/mL"}, {"measurement": "GI50 Lung-NSC NCI-H460", "setting": "NCI-H460", "value": 0.42, "unit": "µg/mL"}, {"measurement": "GI50 Colon KM20L2", "setting": "KM20L2", "value": 0.36, "unit": "µg/mL"}, {"measurement": "GI50 Prostate DU-145", "setting": "DU-145", "value": 0.22, "unit": "µg/mL"}]}, {"compound": "O=C1N[C@H]2[C@H](OP(=O)([O-])[O-])[C@H](O)[C@@H](O)[C@H](O)[C@@H]2c2cc3c(c(O)c21)OCO3.[Ca+2]", "note": "[Compound 4f, Calcium Pancratistatin 4-O-Phosphate]", "values": [{"measurement": "GI50 Pancreas-a BXPC-3", "setting": "BXPC-3", "value": 0.25, "unit": "µg/mL"}, {"measurement": "GI50 Breast MCF-7", "setting": "MCF-7", "value": 0.36, "unit": "µg/mL"}, {"measurement": "GI50 CNS SF268", "setting": "SF268", "value": 0.26, "unit": "µg/mL"}, {"measurement": "GI50 Lung-NSC NCI-H460", "setting": "NCI-H460", "value": 0.27, "unit": "µg/mL"}, {"measurement": "GI50 Colon KM20L2", "setting": "KM20L2", "value": 0.23, "unit": "µg/mL"}, {"measurement": "GI50 Prostate DU-145", "setting": "DU-145", "value": 0.12, "unit": "µg/mL"}]}, {"compound": "O=C1N[C@H]2[C@H](OP(=O)([O-])[O-])[C@H](O)[C@@H](O)[C@H](O)[C@@H]2c2cc3c(c(O)c21)OCO3.[Zn+2]", "note": "[Compound 4g, Zinc Pancratistatin 4-O-Phosphate]", "values": [{"measurement": "GI50 Pancreas-a BXPC-3", "setting": "BXPC-3", "value": 0.27, "unit": "µg/mL"}, {"measurement": "GI50 Breast MCF-7", "setting": "MCF-7", "value": 0.47, "unit": "µg/mL"}, {"measurement": "GI50 CNS SF268", "setting": "SF268", "value": 0.38, "unit": "µg/mL"}, {"measurement": "GI50 Lung-NSC NCI-H460", "setting": "NCI-H460", "value": 0.42, "unit": "µg/mL"}, {"measurement": "GI50 Colon KM20L2", "setting": "KM20L2", "value": 0.30, "unit": "µg/mL"}, {"measurement": "GI50 Prostate DU-145", "setting": "DU-145", "value": 0.17, "unit": "µg/mL"}]}, {"compound": "C1CNCCN1.O=C1N[C@H]2[C@H](OP(=O)(O)O)[C@H](O)[C@@H](O)[C@H](O)[C@@H]2c2cc3c(c(O)c21)OCO3", "note": "[Compound 4h, Piperazinium Pancratistatin 4-O-Phosphate]", "values": [{"measurement": "GI50 Pancreas-a BXPC-3", "setting": "BXPC-3", "value": 0.31, "unit": "µg/mL"}, {"measurement": "GI50 Breast MCF-7", "setting": "MCF-7", "value": 0.38, "unit": "µg/mL"}, {"measurement": "GI50 CNS SF268", "setting": "SF268", "value": 0.27, "unit": "µg/mL"}, {"measurement": "GI50 Lung-NSC NCI-H460", "setting": "NCI-H460", "value": 0.35, "unit": "µg/mL"}, {"measurement": "GI50 Colon KM20L2", "setting": "KM20L2", "value": 0.24, "unit": "µg/mL"}, {"measurement": "GI50 Prostate DU-145", "setting": "DU-145", "value": 0.21, "unit": "µg/mL"}]}, {"compound": "C1COCCN1.O=C1N[C@H]2[C@H](OP(=O)(O)O)[C@H](O)[C@@H](O)[C@H](O)[C@@H]2c2cc3c(c(O)c21)OCO3", "note": "[Compound 4i, Morpholinium Pancratistatin 4-O-Phosphate]", "values": [{"measurement": "GI50 Pancreas-a BXPC-3", "setting": "BXPC-3", "value": 0.29, "unit": "µg/mL"}, {"measurement": "GI50 Breast MCF-7", "setting": "MCF-7", "value": 0.40, "unit": "µg/mL"}, {"measurement": "GI50 CNS SF268", "setting": "SF268", "value": 0.38, "unit": "µg/mL"}, {"measurement": "GI50 Lung-NSC NCI-H460", "setting": "NCI-H460", "value": 0.46, "unit": "µg/mL"}, {"measurement": "GI50 Colon KM20L2", "setting": "KM20L2", "value": 0.37, "unit": "µg/mL"}, {"measurement": "GI50 Prostate DU-145", "setting": "DU-145", "value": 0.18, "unit": "µg/mL"}]}, {"compound": "O=C1N[C@H]2[C@H](OP(=O)(O)O)[C@H](O)[C@@H](O)[C@H](O)[C@@H]2c2cc3c(c(O)c21)OCO3.c1c[nH]cn1", "note": "[Compound 4j, Imidazolium Pancratistatin 4-O-Phosphate]", "values": [{"measurement": "GI50 Pancreas-a BXPC-3", "setting": "BXPC-3", "value": 0.25, "unit": "µg/mL"}, {"measurement": "GI50 Breast MCF-7", "setting": "MCF-7", "value": 0.33, "unit": "µg/mL"}, {"measurement": "GI50 CNS SF268", "setting": "SF268", "value": 0.21, "unit": "µg/mL"}, {"measurement": "GI50 Lung-NSC NCI-H460", "setting": "NCI-H460", "value": 0.25, "unit": "µg/mL"}, {"measurement": "GI50 Colon KM20L2", "setting": "KM20L2", "value": 0.13, "unit": "µg/mL"}, {"measurement": "GI50 Prostate DU-145", "setting": "DU-145", "value": 0.13, "unit": "µg/mL"}]}, {"compound": "C=C[C@H]1CN2CC[C@H]1C[C@H]2[C@H](O)c1ccnc2ccc(OC)cc12.O=C1N[C@H]2[C@H](OP(=O)(O)O)[C@H](O)[C@@H](O)[C@H](O)[C@@H]2c2cc3c(c(O)c21)OCO3", "note": "[Compound 4k, Quinium Pancratistatin 4-O-Phosphate]", "values": [{"measurement": "GI50 Pancreas-a BXPC-3", "setting": "BXPC-3", "value": 0.23, "unit": "µg/mL"}, {"measurement": "GI50 Breast MCF-7", "setting": "MCF-7", "value": 0.35, "unit": "µg/mL"}, {"measurement": "GI50 CNS SF268", "setting": "SF268", "value": 0.28, "unit": "µg/mL"}, {"measurement": "GI50 Lung-NSC NCI-H460", "setting": "NCI-H460", "value": 0.31, "unit": "µg/mL"}, {"measurement": "GI50 Colon KM20L2", "setting": "KM20L2", "value": 0.22, "unit": "µg/mL"}, {"measurement": "GI50 Prostate DU-145", "setting": "DU-145", "value": 0.15, "unit": "µg/mL"}]}, {"compound": "C=C[C@H]1CN2CC[C@H]1C[C@@H]2[C@@H](O)c1ccnc2ccc(OC)cc12.O=C1N[C@H]2[C@H](OP(=O)(O)O)[C@H](O)[C@@H](O)[C@H](O)[C@@H]2c2cc3c(c(O)c21)OCO3", "note": "[Compound 4l, Quinidium Pancratistatin 4-O-Phosphate]", "values": [{"measurement": "GI50 Pancreas-a BXPC-3", "setting": "BXPC-3", "value": 0.34, "unit": "µg/mL"}, {"measurement": "GI50 Breast MCF-7", "setting": "MCF-7", "value": 0.38, "unit": "µg/mL"}, {"measurement": "GI50 CNS SF268", "setting": "SF268", "value": 0.27, "unit": "µg/mL"}, {"measurement": "GI50 Lung-NSC NCI-H460", "setting": "NCI-H460", "value": 0.36, "unit": "µg/mL"}, {"measurement": "GI50 Colon KM20L2", "setting": "KM20L2", "value": 0.23, "unit": "µg/mL"}, {"measurement": "GI50 Prostate DU-145", "setting": "DU-145", "value": 0.20, "unit": "µg/mL"}]}, {"compound": "O=C1N[C@H]2[C@@H]3OP(=O)([O-])O[C@@H]3[C@@H](O)[C@H](O)[C@@H]2c2cc3c(c(O)c21)OCO3.[Na+]", "note": "[Compound 5a, Sodium Pancratistatin 3,4-cyclic Phosphate]", "values": [{"measurement": "GI50 Pancreas-a BXPC-3", "setting": "BXPC-3", "value": 3.3, "unit": "µg/mL"}, {"measurement": "GI50 Breast MCF-7", "setting": "MCF-7", "value": 2.9, "unit": "µg/mL"}, {"measurement": "GI50 CNS SF268", "setting": "SF268", "value": 2.9, "unit": "µg/mL"}, {"measurement": "GI50 Lung-NSC NCI-H460", "setting": "NCI-H460", "value": 3.8, "unit": "µg/mL"}, {"measurement": "GI50 Colon KM20L2", "setting": "KM20L2", "value": 3.7, "unit": "µg/mL"}, {"measurement": "GI50 Prostate DU-145", "setting": "DU-145", "value": 2.3, "unit": "µg/mL"}]}]}
